Data set [1] concerns Rattus norvegicus. Conditions: for LD50: acute, mortality.
Data set [2] deals with Colinus virginianus. The note with it: for LD50: acute, oral, mortality.
The test system of data set [3] is Folsomia candida. Conditions: chronic/long-term; mortality.
Data set [4] concerns Daphnia magna. Conditions: chronic/long-term; duration: 21 days; reproduction.
Data set [5] concerns Tagia sp. Conditions: chronic/long-term; growth.
The test system of data set [6] is Oncorhynchus mykiss. The note with it: acute, mortality.
For data set [7], the system named is Neomysis kadiakensis. The note with it: chronic/long-term; duration: 28 days; reproduction.
The subject of data set [8] is Apis mellifera. Conditions: acute, mortality.
Data set [9] has as its system Pimephales promelas. The note with it: chronic/long-term; duration: 266 days; reproduction.
For data set [10], the system named is Chironomus tentans. The note with it: chronic/long-term; duration: 24 days.

Structures are written as SMILES. Converted amounts (≈) assume the structure as drawn.

These results are taken from EPA's ToxValDB 9.5 (doi:10.2903/j.efsa.2016.4406).

The LC50 is the concentration lethal to half of the exposed cells or organisms. The low end stands for greater toxicity, the high end for lower toxicity. The NOAEL is the highest tested level that showed no adverse finding.

Take `CSC1=N[C@@](C)(c2ccccc2)C(=O)N1`: the LD50 in data set [1] is 176 mg/kg; in [2] (diet), 723 mg/kg. Also, the values for the NOEC in [3], in data set [4] and in [5] were 250 mg/kg, 16 mg/L and 100 mg/kg, respectively. The same compound yielded a median lethal concentration (LC50) in [6] above 98 mg/L.

Regarding `CC1(c2ccccc2)NC(=O)NC1=O` (configuration not stated) [5-Methyl-5-phenylhydantoin], the LD50 in [1] (oral) is 1520 mg/kg; in data set [2] (diet) it was above 2500 mg/kg. In addition, the NOAEL in data set [1] (subchronic, duration: 90 days, oral) was 6.4 mg/kg-day.

In the case of `CSC1=N[C@@](C)(c2ccccc2)C(=O)N1Nc1ccccc1` [(S)-1-Anilino-4-methyl-2-methylthio-4-phenylimidazolin-5-one], the LD50 in data set [1] was above 2030 mg/kg; in data set [2] (diet), above 1070 mg/kg; in data set [2], above 2000 mg/kg; in data set [8] (dermal), 25.7 µg/piece; in data set [8] (oral, unspecified), above 93.3 µg/piece. Moreover, the NOAEL in data set [1] (chronic, body weight) came out at 3.9 mg/kg-day. The NOEL in data set [2] (chronic, reproduction) is 133 mg/kg-day. In addition, the NOEC in data set [3] is 2.26 mg/kg; in data set [7] it was 0.0095 mg/L; in data set [5] it was 0.63 mg/kg; in data set [9] it was 0.07 mg/L; in [10], 0.05 mg/L. The compound also showed an LC50 in [6] (duration: 96 hours) of 0.74 mg/L (≈ 2.38 µM).
